The melting point is the temperature, or range, at which the solid turns liquid.

Like-named read-outs stand apart in the source and are kept apart here.

Data set [1] deals with T1, hT1R1/hT1R3 umami receptor (Homo sapiens, UniProt Q7RTX0+Q7RTX1).
T1 construct: expressed in transfected cells; host or cells: HEK293 derivative stably expressing Gα15, clone I-17, expression induced with mifepristone
T1 sequence (Q7RTX1 21-841): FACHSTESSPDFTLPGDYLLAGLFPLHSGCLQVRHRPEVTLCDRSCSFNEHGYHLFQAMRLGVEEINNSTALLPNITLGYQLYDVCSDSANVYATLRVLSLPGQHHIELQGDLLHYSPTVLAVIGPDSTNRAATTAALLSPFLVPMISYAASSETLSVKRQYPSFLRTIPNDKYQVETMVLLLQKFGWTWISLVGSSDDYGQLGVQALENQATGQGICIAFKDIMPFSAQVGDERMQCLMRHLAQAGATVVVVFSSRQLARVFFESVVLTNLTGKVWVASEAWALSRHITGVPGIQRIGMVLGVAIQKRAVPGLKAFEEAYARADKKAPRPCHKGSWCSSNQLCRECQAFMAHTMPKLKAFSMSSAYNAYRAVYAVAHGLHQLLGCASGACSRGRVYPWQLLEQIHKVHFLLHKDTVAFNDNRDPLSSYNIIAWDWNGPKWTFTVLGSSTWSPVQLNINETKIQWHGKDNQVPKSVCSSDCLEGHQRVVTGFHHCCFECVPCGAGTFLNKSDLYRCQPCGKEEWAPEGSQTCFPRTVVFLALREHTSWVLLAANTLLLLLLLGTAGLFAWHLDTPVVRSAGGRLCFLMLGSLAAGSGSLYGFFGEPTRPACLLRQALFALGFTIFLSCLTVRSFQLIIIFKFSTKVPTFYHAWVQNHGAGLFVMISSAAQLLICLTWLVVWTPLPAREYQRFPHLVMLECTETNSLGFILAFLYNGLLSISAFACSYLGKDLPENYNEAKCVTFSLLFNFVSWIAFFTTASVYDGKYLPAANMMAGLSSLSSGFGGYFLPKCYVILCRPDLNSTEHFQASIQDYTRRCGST
T1 sequence (Q7RTX0 21-852): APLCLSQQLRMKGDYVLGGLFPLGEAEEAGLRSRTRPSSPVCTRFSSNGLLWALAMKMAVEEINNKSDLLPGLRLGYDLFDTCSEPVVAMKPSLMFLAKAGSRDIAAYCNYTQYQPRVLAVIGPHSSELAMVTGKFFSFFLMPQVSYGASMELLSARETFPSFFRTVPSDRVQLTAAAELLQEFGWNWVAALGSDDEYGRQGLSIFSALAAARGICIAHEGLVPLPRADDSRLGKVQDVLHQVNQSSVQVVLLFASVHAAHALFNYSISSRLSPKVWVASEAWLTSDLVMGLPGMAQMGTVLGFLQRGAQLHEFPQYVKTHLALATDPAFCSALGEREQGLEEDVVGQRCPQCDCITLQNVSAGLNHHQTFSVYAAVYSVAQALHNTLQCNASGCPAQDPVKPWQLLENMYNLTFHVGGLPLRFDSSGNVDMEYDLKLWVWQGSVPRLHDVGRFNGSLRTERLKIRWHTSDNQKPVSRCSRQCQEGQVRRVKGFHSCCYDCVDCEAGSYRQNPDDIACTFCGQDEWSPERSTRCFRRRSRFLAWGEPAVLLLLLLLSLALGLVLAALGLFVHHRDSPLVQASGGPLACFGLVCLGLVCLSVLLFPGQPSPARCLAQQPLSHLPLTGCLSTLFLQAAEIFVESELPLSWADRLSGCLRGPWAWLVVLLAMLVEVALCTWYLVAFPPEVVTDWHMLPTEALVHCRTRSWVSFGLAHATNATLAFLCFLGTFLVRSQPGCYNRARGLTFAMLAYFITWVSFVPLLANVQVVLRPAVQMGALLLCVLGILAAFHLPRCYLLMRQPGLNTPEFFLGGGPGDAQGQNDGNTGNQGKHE
Nature of the data set: Umami taste enhancement assay: shift of the MSG EC50 (EC50 ratio vs. MSG). The data set is classed as cell-based. Particulars: Table E. The method, then: A series of measurements of the dose response is run in solutions comprising MSG alone, then a second dose response is run with MSG in combination with predetermined amounts of a candidate compound of Formula (I) at the same time.
Typical compound concentrations tested were 30 μM, 10 μM, 3 μM, 1 μM, 0.3 μM, 0.1 μM and 0.03 μM. The relative efficacy of compounds of Formula (I) at enhancing the receptor was determined by calculating the magnitude of a shift in the EC50 for monosodium glutamate. Enhancement was defined as a ratio (EC50R) corresponding to the EC50 of monosodium glutamate, determined in the absence of the test compound, divided by the EC50 of monosodium glutamate, determined in the presence of the test compound.
Stated alternatively, “EC50 ratio” as compared to MSG is calculated based on the following definitions: EC50 Ratio vs. MSG=EC50 (MSG)/EC50 (MSG+[Compound]) • wherein “[compound]” refers to the concentration of the compound of Formula (I) used to elicit (or enhance or potentiate) the MSG dose response.

Data set [2] concerns the target T2, hT1R2/hT1R3 sweet receptor (Homo sapiens, UniProt Q7RTX0+Q8TE23).
T2 construct: expressed in transfected cells; host or cells: HEK293 derivative stably expressing Gα15, clone S-9
T2 sequence (Q8TE23 20-839): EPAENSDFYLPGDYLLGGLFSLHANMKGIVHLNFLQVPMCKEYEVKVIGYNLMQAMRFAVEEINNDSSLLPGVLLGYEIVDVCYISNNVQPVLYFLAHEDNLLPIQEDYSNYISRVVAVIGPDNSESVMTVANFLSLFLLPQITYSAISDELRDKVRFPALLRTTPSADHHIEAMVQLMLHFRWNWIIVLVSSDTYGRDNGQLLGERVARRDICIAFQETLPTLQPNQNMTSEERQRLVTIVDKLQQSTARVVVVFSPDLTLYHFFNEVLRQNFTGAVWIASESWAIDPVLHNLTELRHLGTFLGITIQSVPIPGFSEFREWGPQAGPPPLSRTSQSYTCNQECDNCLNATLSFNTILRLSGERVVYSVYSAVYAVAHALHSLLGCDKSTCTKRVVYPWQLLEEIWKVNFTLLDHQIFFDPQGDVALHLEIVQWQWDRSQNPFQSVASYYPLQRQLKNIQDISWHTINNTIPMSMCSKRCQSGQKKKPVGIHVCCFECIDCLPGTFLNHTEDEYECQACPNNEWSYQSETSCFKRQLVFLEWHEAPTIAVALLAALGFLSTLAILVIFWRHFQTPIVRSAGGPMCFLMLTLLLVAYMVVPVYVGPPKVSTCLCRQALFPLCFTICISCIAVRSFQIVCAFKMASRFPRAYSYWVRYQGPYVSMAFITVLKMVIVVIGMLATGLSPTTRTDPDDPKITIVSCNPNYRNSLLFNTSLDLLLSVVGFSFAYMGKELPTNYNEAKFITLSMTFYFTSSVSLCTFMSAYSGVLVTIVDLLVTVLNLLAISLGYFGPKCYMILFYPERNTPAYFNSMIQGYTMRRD
T2 sequence (Q7RTX0 21-852): T1 sequence (Q7RTX0 21-852)
Nature of the data set: In vitro hT1R2/hT1R3 sweet taste receptor activation assay (FLIPR, dose response). The data set is classed as cell-based. In a few lines: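 Dose-response at 10 concentrations (60 nM–30 µM, duplicates) measured as Fluo-3AM calcium fluorescence on FLIPR in hT1R2/hT1R3 S-9 cells, in D-PBS at room temperature. Responses scaled to 400 mM D-fructose. EC50s from regression with all curve parameters floating.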

Another data set deals with human subjects. Put plainly: "Difference from Reference" human taste test (sweetness). The data set is classed as in vivo. The source says:
To determine how the intensity of a test sample of an experimental compound differs from that of a reference sample in terms of sweetness. This type of study requires a larger panel (typically 15-20 Subjects) in order to obtain statistically significant data.
Subjects rate the difference in intensity of the test sample compared to the reference sample for the key attribute on a scale of −5 (much less sweet than the reference) to +5 (much more sweet than the reference). A score of 0 indicates the test sample is equally as sweet as the reference.
Ten or more Subjects are used for the “Difference from Reference” tests. Subjects have been previously familiarized with the key attribute taste and are trained to use the −5 to +5 scale. Subjects refrain from eating or drinking (except water) for at least 1 hour prior to the test. Subjects eat a cracker and rinse with water four times to clean the mouth.
Test solutions can include the experimental compound in water, the experimental compound plus a key tastant (e.g., 4% sucrose, 6% sucrose, 6% fructose, 6% fructose/glucose, or 7% fructose/glucose, at pH 7.1 or 2.8), and a range of key tastant only solutions as references.
Samples of the key tastant without the experimental compound are used to determine if the panel is rating accurately; i.e., the reference is tested against itself (blind) to determine how accurate the panel is rating on a given test day. The solutions are dispensed in 10 ml volumes into 1 oz. sample cups and served to the Subjects at room temperature.
Subjects first taste the reference sample then immediately taste the test sample and rate the difference in intensity of the key attribute on the Difference from Reference scale (−5 to +5). All samples are expectorated. Subjects may retaste the samples but can only use the volume of sample given. Subjects must rinse at least twice with water between pairs of samples. Eating a cracker between sample pairs may be required depending on the samples tasted.
The scores for each test are averaged across Subjects and standard error is calculated. Panel accuracy can be determined using the score from the blind reference test. ANOVA and multiple comparison tests (such as Tukey's Honestly Significant Difference test) can be used to determine differences among pairs, provided the reference sample is the same among all tests. If the identical test pair is tested in another session, a Student's t-test (paired, two-tailed; alpha=0.05) can be used to determine if there is any difference in the ratings between sessions.
A number of different reference sweeteners have been utilized for the measurement of sweet taste enhancement. […]

[3] abbreviates: read-out: EC50 for activation of a hT1R2/hT1R3 sweet receptor expressed in an HEK293 cell line.

On to `O=C(N[C@@H]1CCc2ccccc21)c1cccc(Cl)c1O` [Example E127, (R)-3-chloro-N-(2,3-dihydro-1H-inden-1-yl)-2-hydroxybenzamide], for which the “Umami EC50 ratio” value in data set [1] is 2.81 (10 M cpd). For the same compound, in data set [2] (Table E, Sweet Enhancer Amides, read-out: Sweet EC50), the EC50 is 950 nM.

`Cc1cc(C)c2c(c1)[C@H](NC(=O)c1conc1C)CCC2` [Example 176, (R)—N—(5,7-Dimethyl-1,2,3,4-tetrahydronaphthalen-1-yl)-3-methylisoxazole-4-carboxamide]: the melting point was 124 to 125 °C. Besides, the EC50 in data set [2] (setting [3]) stood at 520 nM. Moreover, the “Perceived Equivalent Sweet Solution” value in the data set with human subjects (10 μM compound + 7% fructose/glucose, pH 2.8) is “Equal to 10.5% fructose/glucose”. For the same compound, the “Perceived Equivalent Sweet Solution” value in the data set with human subjects (10 μM compound + 7% fructose/glucose, pH 7.1) is “Equal to 10% fructose/glucose”.

Take `Cc1nocc1C(=O)N[C@@H]1CCCc2ccccc21` [Example 175, 3-Methyl-isoxazole-4-carboxylic acid (1,2,3,4-tetrahydro-naphthalen-1-yl)-amide]: in data set [2] (setting [3]), the EC50 was 5800 nM. The “Perceived Equivalent Sweet Solution” value with human subjects (50 μM compound + 4% sucrose, pH not measured or controlled) is given as 6% sucrose.

As for `COc1cccc2c1CCC[C@H]2NC(=O)c1cccc(Cl)c1O` [Example 177, (R)-3-Chloro-2-hydroxy-N-(5-methoxy-1,2,3,4-tetrahydronaphthalen-1-yl) benzamide], the melting point lay in the range of 175 to 176 °C. Moreover, the EC50 in data set [2] (setting [3]) was determined as 180 nM. In addition, in the data set with human subjects (3 μM compound + 6% fructose/glucose, pH 7.1), the “Perceived Equivalent Sweet Solution” value is “Equal to 10% fructose/glucose”.

(Values after patent publication US20060045953A1 (priority 2004, published 2006).)
